Earlier results as cited in publication PMC7473964, “Application of Pharmacokinetic-Pharmacodynamic Modeling to Inform Translation of In Vitro NaV1.7 Inhibition to In Vivo Pharmacological Response in Non-human Primate” (Pharmaceutical Research, 2020).

System: sense of smell (hyposmia) as biomarker of on-target NaV1.7 pharmacology
Parameters: method as in PMID 31172446
Conditions: healthy volunteers, first-in-human study

SMILES: O=C(NS(=O)(=O)N1CCC1)c1cc(C2CC2)c(OCC23CC4CC(CC(C4)C2)C3)cc1F [GDC-0276]
- Hyposmia in clinical study: a couple of incidents of hyposmia were reported
